Assay in all cases: DTP human tumour cell line panel, 48 h
Assay [1] concerns SK-MEL-5.
The subject of assay [2] is OVCAR-5.
Assay [3] has as its system T47D.
Assay [4] has as its system HCT-15.
Assay [5] deals with SK-MEL-2.
The subject of assay [6] is HOP-62.
Assay [7] concerns KM12.
For assay [8], the system named is OVCAR-8.
In assay [9] the test system is HOP-92.
Assay [10] has as its system LOX IMVI.
The subject of assay [11] is A498.
The subject of assay [12] is TK-10.
Assay [13] relates to DU-145.
In assay [14] the test system is SK-MEL-28.
Assay [15] has as its system IGROV-1.
Assay [16] has as its system RXF 393.
For assay [17], the system named is MDA-N.
For assay [18], the system named is ACHN.
Assay [19] has as its system OVCAR-4.

Each structure is given as a SMILES string.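 Each compound was tested at five concentrations against cells in 96-well plates for 48 hours. GI50 marks 50% less growth.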 Activity calls are given as the source filed them. No stated cut-off is given here; in the data, active = GI50 up to about 1.1 µM and inactive = higher.

On to `CC(C)CC(NC(O)[BH2-][N+](C)(C)C)C(=O)NC(Cc1ccccc1)C(=O)N[C@H]1c2ccsc2/C(=N/O)[C@H]1O` (stereo partly specified), for which the GI50 in [1] is > 100 µM (inactive); in assay [2], > 100 µM (inactive); in assay [3] it was > 100 µM (inactive); in assay [4], above 100 µM; in assay [5], > 100 µM (inactive); in [6], > 100 µM (inactive). Also, the GI50 in assay [7], in [8], in assay [9], in assay [10], in [11] and in [12] was > 100 µM (inactive) throughout. Further, the GI50 in assay [13], in assay [14], in assay [15], in [16], in assay [17] and in [18] was > 100 µM (inactive) each time. Further, in assay [19], the GI50 was > 100 µM (inactive).
As to `O=C([O-])C(O)C(O)C(=O)O.[K+]` (stereo unspecified) [POTASSIUM HYDROGENTARTRATE], the GI50 in [1] is > 100 µM (inactive); in [2], > 100 µM (inactive); in [3] it was > 100 µM (inactive); in assay [4], above 100 µM; in assay [5] it was > 100 µM (inactive); in assay [6], > 100 µM (inactive). In addition, the GI50 in assay [7], in assay [8], in assay [9], in assay [10], in [11] and in [12] was > 100 µM (inactive) throughout. The GI50 in [13], in [14], in assay [15], in assay [16], in assay [17] and in [18] was > 100 µM (inactive) in each case. Besides, in assay [19], the GI50 is > 100 µM (inactive).
For the molecule `COc1cccc(-c2nnc3c(-c4ccccc4)nc4ccccc4n23)c1`, the GI50 is 14 µM (inactive) in assay [1]; > 100 µM (inactive) in [2]; 4.35 µM (inactive) in [3]; 7.23 µM in assay [4]; 10.1 µM (inactive) in assay [5]; 58.1 µM (inactive) in assay [6]. Further, the GI50 was 4.94 µM (inactive) in assay [7]; 45.2 µM (inactive) in [8]; 28 µM (inactive) in [9]; 63.5 µM (inactive) in assay [10]; 6.58 µM (inactive) in assay [11]; 36.3 µM (inactive) in assay [12]. Moreover, the GI50 is 42.5 µM (inactive) in assay [13]; > 77.4 µM (inactive) in [14]; 21.6 µM (inactive) in assay [15]; 8.38 µM (inactive) in assay [16]; 3.5 µM (inactive) in [17]; > 62.2 µM (inactive) in assay [18]. The GI50 in assay [19] is 9.86 µM (inactive).
In the case of `Nc1ncnc2c1ncn2C1OC(CO)C2OC21` (stereo unspecified), the GI50 was > 100 µM (inactive) in [1]; > 100 µM (inactive) in assay [2]; > 100 µM (inactive) in assay [3]; above 10 µM in [4]; > 100 µM (inactive) in assay [5]; > 100 µM (inactive) in [6]. Besides, the GI50 in assay [7], in assay [8], in [9], in assay [10], in assay [11] and in [12] was > 100 µM (inactive) each time. Moreover, the GI50 in assay [13] is > 100 µM (inactive); in assay [14], > 100 µM (inactive); in [15] it was > 100 µM (inactive); in assay [16] it was > 100 µM (inactive); in assay [17], > 10 µM (inactive); in assay [18] it was > 100 µM (inactive). In addition, in [19], the GI50 is > 100 µM (inactive).
As to `N=C1C(O)C2(I)c3ccccc3N3C(=N)C(O)C4c5ccccc5N1C4C32` (stereo unspecified), the GI50 in assay [1] is 30.8 µM (inactive); in assay [2] it was > 100 µM (inactive); in [3], > 100 µM (inactive); in assay [4] it was 32.3 µM; in assay [5], > 100 µM (inactive); in assay [6], 38.3 µM (inactive). The GI50 in assay [7] is 15.1 µM (inactive); in assay [8] it was 33.5 µM (inactive); in assay [9], 37.4 µM (inactive); in assay [10] it was 39 µM (inactive); in assay [11] it was > 100 µM (inactive); in [12] it was > 100 µM (inactive). Besides, the GI50 is > 100 µM (inactive) in assay [13]; 90.6 µM (inactive) in assay [14]; 19.9 µM (inactive) in assay [15]; > 100 µM (inactive) in assay [16]; 42.7 µM (inactive) in assay [17]; 39.4 µM (inactive) in assay [18]. Also, the GI50 in assay [19] is 16 µM (inactive).
Regarding `O=C1CCC2(CC1CC[S+]([O-])c1ccccc1)OCCO2` (stereo unspecified), the GI50 was > 100 µM (inactive) in assay [1]; > 100 µM (inactive) in assay [2]; > 100 µM (inactive) in assay [3]; above 100 µM in assay [4]; > 100 µM (inactive) in assay [5]; > 100 µM (inactive) in [6]. For the same molecule, the GI50 in assay [7], in [8], in assay [9], in assay [10], in assay [11] and in assay [12] was > 100 µM (inactive) in each case. Besides, the GI50 in assay [13], in assay [14], in assay [15], in [16], in assay [17] and in assay [18] was > 100 µM (inactive) in each case. Besides, the GI50 in assay [19] was > 100 µM (inactive).
Regarding `CC1(C)OCC(C2OC(On3nnc4ccc(Cl)cc43)C3OC(C)(C)OC23)O1` (stereo unspecified), the GI50 was > 100 µM (inactive) in [1]; > 100 µM (inactive) in [2]; > 100 µM (inactive) in assay [3]; above 100 µM in assay [4]; > 100 µM (inactive) in assay [5]; > 100 µM (inactive) in assay [6]. Besides, the GI50 is > 100 µM (inactive) in assay [7]; > 100 µM (inactive) in assay [8]; > 100 µM (inactive) in assay [9]; > 100 µM (inactive) in assay [10]; 11.7 µM (inactive) in assay [11]; > 100 µM (inactive) in assay [12]. For the same molecule, the GI50 in assay [13], in assay [14], in assay [15], in assay [16], in assay [17] and in assay [18] was > 100 µM (inactive) in each case. For the same molecule, the GI50 in assay [19] was > 100 µM (inactive).
In the case of `Cc1cc2c(c(=O)o1)C1=S(SC(c3ccccc3)=C1)S2` (stereo unspecified), the GI50 in assay [1] was 47.4 µM (inactive); in assay [2], 78.9 µM (inactive); in assay [3], 36.9 µM (inactive); in [4], above 100 µM; in assay [5] it was 66.4 µM (inactive); in [6] it was 20.8 µM (inactive). For the same molecule, the GI50 is 84.3 µM (inactive) in assay [7]; 54.7 µM (inactive) in assay [8]; 20.8 µM (inactive) in [9]; 87.1 µM (inactive) in [10]; 13.9 µM (inactive) in [11]; 32.2 µM (inactive) in assay [12]. For the same molecule, the GI50 in assay [13] is 36.3 µM (inactive); in [14] it was > 100 µM (inactive); in assay [15], 55.5 µM (inactive); in [16], 20.2 µM (inactive); in [17] it was > 100 µM (inactive); in [18], 34.7 µM (inactive). Further, the GI50 in assay [19] is 29 µM (inactive).
Consider `CC1(C)C2CCC1(C)C(OC(=O)/C=C/C(=O)OC1CC3CCC1(C)C3(C)C)C2` (stereo unspecified), for which the GI50 in assay [1] was 17.9 µM (inactive); in [2], > 100 µM (inactive); in assay [3], > 100 µM (inactive); in assay [4], 68.7 µM; in [5], 61.7 µM (inactive); in assay [6], > 100 µM (inactive). Further, the GI50 in assay [7] was > 100 µM (inactive); in assay [8] it was > 100 µM (inactive); in assay [9], 24.8 µM (inactive); in [10], 21.7 µM (inactive); in assay [11] it was > 100 µM (inactive); in assay [12] it was > 100 µM (inactive). Also, the GI50 in assay [13] is > 100 µM (inactive); in [14], 18.9 µM (inactive); in assay [15], > 100 µM (inactive); in assay [16], 58.9 µM (inactive); in assay [17], 60.4 µM (inactive); in [18], > 100 µM (inactive). Further, the GI50 in assay [19] was > 100 µM (inactive).
For `CC#CC#C/C=C1/O[C@]2(CCC(OC(C)=O)CO2)[C@@H]2O[C@H]12` (stereo partly specified), the GI50 was 30.5 µM (inactive) in assay [2]; 15.3 µM (inactive) in [3]; 16.6 µM in assay [4]; 16.8 µM (inactive) in [5]; 37.2 µM (inactive) in assay [6]; 19.9 µM (inactive) in assay [7]. Further, the GI50 was 32.8 µM (inactive) in assay [8]; 28.1 µM (inactive) in assay [9]; 15.1 µM (inactive) in assay [10]; 22.2 µM (inactive) in assay [11]; 39.5 µM (inactive) in assay [12]; 30.5 µM (inactive) in [13]. For the same molecule, the GI50 is 50.7 µM (inactive) in [15]; 18.5 µM (inactive) in assay [16]; 28.2 µM (inactive) in [17]; 24.9 µM (inactive) in [18]; 27.9 µM (inactive) in [19].
For the molecule `CC1=Nc2ccccc2OC(C)=C1/N=N/c1ccc2[nH]c(C)nc2c1`, the GI50 in assay [2] is > 100 µM (inactive); in assay [3], 50.9 µM (inactive); in assay [4] it was above 100 µM; in [5], > 100 µM (inactive); in assay [6], > 100 µM (inactive); in [7], > 100 µM (inactive). For the same molecule, the GI50 in [8] is > 100 µM (inactive); in assay [9], 44.1 µM (inactive); in assay [10], 66.2 µM (inactive); in assay [11], 24.4 µM (inactive); in assay [12], > 100 µM (inactive); in assay [13], > 100 µM (inactive). For the same molecule, the GI50 in assay [14] was > 100 µM (inactive); in assay [15] it was 33.5 µM (inactive); in assay [16], 56.1 µM (inactive); in [17], > 100 µM (inactive); in assay [18], 43.8 µM (inactive); in [19], > 100 µM (inactive).

In general, GI50 refers to the concentration giving 50% growth inhibition.

The values are drawn from ChEMBL document CHEMBL1201862, “PubChem BioAssay data set” (2004).
